The term IC50 denotes the point on the concentration scale where inhibition reaches its midpoint.

Counter-ions that a name gives are not always drawn.

Chain of human PARP (PARP1) (P09874 whole entry): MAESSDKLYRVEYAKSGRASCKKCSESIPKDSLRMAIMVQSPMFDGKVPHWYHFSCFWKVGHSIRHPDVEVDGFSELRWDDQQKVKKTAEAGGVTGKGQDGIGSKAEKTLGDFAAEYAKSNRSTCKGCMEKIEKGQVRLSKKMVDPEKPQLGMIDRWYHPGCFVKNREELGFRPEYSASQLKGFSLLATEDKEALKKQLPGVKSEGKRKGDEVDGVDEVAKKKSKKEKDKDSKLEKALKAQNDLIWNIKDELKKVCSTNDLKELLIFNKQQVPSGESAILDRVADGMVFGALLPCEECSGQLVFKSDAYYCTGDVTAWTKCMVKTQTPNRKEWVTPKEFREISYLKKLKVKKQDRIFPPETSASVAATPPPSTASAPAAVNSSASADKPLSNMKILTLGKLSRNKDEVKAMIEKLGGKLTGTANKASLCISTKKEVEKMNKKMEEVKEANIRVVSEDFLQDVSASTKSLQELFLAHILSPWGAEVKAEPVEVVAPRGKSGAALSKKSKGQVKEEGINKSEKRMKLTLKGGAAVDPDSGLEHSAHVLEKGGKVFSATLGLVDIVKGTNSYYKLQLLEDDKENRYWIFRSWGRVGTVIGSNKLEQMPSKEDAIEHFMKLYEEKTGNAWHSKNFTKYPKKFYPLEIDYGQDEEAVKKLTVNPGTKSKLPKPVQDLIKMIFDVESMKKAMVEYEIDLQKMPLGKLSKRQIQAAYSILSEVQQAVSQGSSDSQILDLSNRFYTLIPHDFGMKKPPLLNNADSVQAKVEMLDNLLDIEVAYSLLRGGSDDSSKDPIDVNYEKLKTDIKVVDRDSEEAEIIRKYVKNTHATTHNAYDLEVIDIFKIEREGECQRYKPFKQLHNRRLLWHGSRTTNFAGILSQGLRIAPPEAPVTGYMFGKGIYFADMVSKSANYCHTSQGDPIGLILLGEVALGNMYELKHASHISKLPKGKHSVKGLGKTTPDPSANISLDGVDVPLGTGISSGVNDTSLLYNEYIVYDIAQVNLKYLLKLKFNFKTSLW

The assay concerns the target human PARP (PARP1) (Homo sapiens, UniProt P09874). Briefly: PARP enzyme assay of Table 3 (radioactive enzyme assay or 'ELISA' enzyme assay).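 Further: Baculovirus-expressed PARP1 from insect cells, activity read as tritium from labeled NAD in acid-precipitated protein, or as biotin-NAD built into plate-bound histone by absorbance at 450 nm.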 The settings on record: IC50 (μM), fifty percent inhibitory concentration; recombinant human PARP. On the technique in general: In an ELISA, binding on a coated surface is turned into a signal by an enzyme label.
Description: The compounds of this invention are then tested with this enzyme preparation using either the radioactive enzyme assay or by the “ELISA” enzyme assay as set forth below.
Incorporation of radioactivity from labeled NAD into acid-precipitated protein is measured. The reaction mixture (volume 100 μL or 50 μL, in a test-tube or 96-well plate) contained 100 μg/mL calf thymus DNA (sonicated), 100 μg/mL histones, 100 mM Tris (pH 8.0), 1.0 mM DTT, 10 mM MgCl2, NAD (200 μm, 0.65 microcurie/mL), and varying amounts of enzyme. The reaction was incubated for 10 min at 37° C. or at room temperature for 60 min. The reaction was stopped and protein precipitated by addition of ice-cold trichloroacetic acid (TCA; 10% or 20% aqueous w/v). After brief storage in ice or at 4° C. for 2 hrs, the reaction mixture is filtered under vacuum through a glass fiber filter (2.5 cm disc, or 96-well filter plate). After washing with TCA and ethanol, the filter is dried and counted for tritium CPM after addition of scintillation fluid.
Incorporation of biotin-NAD into histone coated on plate is measured. A 96-well protein-binding EIA plate is coated with histone and blocked with bovine serum albumin. The reaction mixture (50 μL) contained DNA, buffer, enzyme, (test compound), and 250 μM of NAD and 5 μL of biotin-NAD (Trevigen). After reaction at room temperature the wells are washed and treated with Extravidin (Sigma). After incubation and washing color is developed with the peroxidase substrate TMB (Sigma). The TMB reaction is quenched with 2M sulfurric acid and the absorbance at 450 nm is read.
Regarding `O=Cc1c(N2CCSCC2)n(-c2ccccc2)c2ccccc12` [Example 1, 1-Phenyl-2-(thiomorphin-4-yl)-1H-indole-3-carboxaldehyde], the IC50 was 15.1 µM.

On to `CSc1ccc(-n2c(N3CCNCC3)c(C=O)c3ccccc32)cc1` [Example 11B-9, 2-(Piperazin-1-yl)-1-(4-thiomethylphenyl)-1H-indole-3-carboxaldehyde], for which the IC50 was 4 µM.

Consider `O=Cc1c(N2CCNCC2)n(-c2cccc(CO)c2)c2ccccc12` [Example 57, 1-(3-Hydroxymethylphenyl)-2-(piperazin-1-yl)-1H-indole-3-carboxaldehyde], for which the IC50 was 1.4 µM.

For `O=Cc1c(N2CCN(CCO)CC2)n(-c2ccccc2)c2ccccc12` [Example 41, 2-[4-(2-Hydroxethyl)piperazin-1-yl]-1-phenyl-1H-indole-3-carboxaldehyde Hydrochloride], the IC50 was determined as 43.1 µM.

`O=Cc1c(N2CCNCC2)n(-c2ccc(F)cc2)c2ccccc12` [Example 54, 1-(4-Fluorophenyl)-2-(piperazin-1-yl)-1H-indole-3-carboxaldehyde Hydrochloride]: the IC50 came out at 3.1 µM.

Turning to `O=Cc1c(N2CCNCC2)n(-c2cccc(Cl)c2)c2ccccc12` [Example 55], the half-maximal inhibitory concentration (IC50) was found to be 4.1 µM.

As for `Cc1ccc(-n2c(N3CCNCC3)c(C=O)c3ccccc32)cc1` [Example 53, 1-(4-Methylphenyl)-2-(piperazin-1-yl)-1H-indole-3-carboxaldehyde], the IC50 was found to be 19.9 µM.

As for `CC(C)(C)c1ccc(-n2c(N3CCNCC3)c(C=O)c3ccccc32)cc1` [Example 11B-4, 2-(Piperazin-1-yl)-1-(4-tert-butylphenyl)-1H-indole-3-carboxaldehyde], the IC50 is 10 µM.

For `O=Cc1c(N2CCNCC2)n(-c2cccc(Br)c2)c2ccccc12` [Example 49, 1-(3-Bromophenyl)-2-piperazin-1-yl-1H-indole-3-carboxaldehyde], the IC50 turned out to be 1.9 µM.

On to `Cc1cccc(-n2c(N3CCNCC3)c(C=O)c3ccccc32)c1` [Example 11B-11, 2-(Piperazin-1-yl)-1-(3-methylphenyl)-1H-indole-3-carboxaldehyde], for which the IC50 worked out at 3 µM.

For `N#Cc1ccc(-n2c(N3CCNCC3)c(C=O)c3ccccc32)cc1` [Example 63, 4-[3-Formyl-2-(piperazin-1-yl)-indol-1-yl]-benzonitrile], the IC50 is 2.3 µM.

In the case of `CCOc1cccc(-n2c(N3CCNCC3)c(C=O)c3ccccc32)c1` [Example 58, 1-(3-Ethoxyphenyl)-2-(piperazin-1-yl)-1H-indole-3-carboxaldehyde], the IC50 worked out at 0.85 µM.

Turning to `CC(C)(C)OC(=O)NCCN1CCN(c2c(C=O)c3ccccc3n2-c2ccccc2)CC1` [Example 19], the IC50 is 8.8 µM.

As to `O=Cc1c(N2CCCNCC2)n(-c2ccccc2)c2ccccc12` [Example 22, 2-[1,4]Diazepan-1-yl-1-phenyl-1H-indole-3-carboxaldehyde], the 50% inhibitory concentration (IC50) was 4.5 µM.

Turning to `CCCCc1ccc(-n2c(N3CCNCC3)c(C=O)c3ccccc32)cc1` [Example 61, 1-(4-Butylphenyl-2-(piperazin-1-yl)-1H-indole-3-carboxaldehyde Hydrochloride], the IC50 turned out to be 2.7 µM.

Regarding `COc1ccc(-n2c(N3CCNCC3)c(C=O)c3ccccc32)cc1` [Example 11B-3, 2-(Piperazin-1-yl)-1-(4-methoxyphenyl)-1H-indole-3-carboxaldehyde], the IC50 stood at 4.5 µM.

Turning to `O=Cc1cccc(-n2c(N3CCNCC3)c(C=O)c3ccccc32)c1` [Example 46], the concentration for half-maximal inhibition (IC50) worked out at 0.85 µM.

In the case of `O=Cc1c(N2CCNCC2)n(-c2ccc(Oc3ccccc3)cc2)c2ccccc12` [Example 52, 1(4-Phenoxyphenyl)-2-(piperazin-1-y)l-1H-indole-3-carboxaldehyde], the IC50 turned out to be 42.2 µM.

Regarding `O=Cc1c(N2CCNCC2)n(-c2ccc(-c3ccccc3)cc2)c2ccccc12` [Example 47, 1-(Biphenyl-4-yl)-2-piperazin-1-yl-1H-indole-3-carboxaldehyde Hydrochloride], the IC50 was 6.9 µM.

For the origin of these results see patent US8008491B2, “Substituted AZA-indoles as inhibitors of poly(ADP-ribose) polymerase (PARP)” (Aventis Pharmaceuticals, Inc., priority 2003, dated 2011).
